According to PMC9551036, “A selective and orally bioavailable VHL-recruiting PROTAC achieves SMARCA2 degradation in vivo” (Nature Communications, 2022):
Values joined by “and” are separate entries in the source; they are usually repeats but may differ in a detail not shown here. Equal entries are not always repeated. Where two headings read alike, the source gives them in different places.

Legend:
[1] = test system: VCB: PROTAC: SMARCA4^BD ternary complex; assay: TR-FRET ternary complex affinity and cooperativity, SMARCA4; assay type: binding, human; details: ratio TR-FRET EC50 / TR-FRET EC50 +VCB measured in the same run, SMARCA4BD
Microsomal stability = assay type: in vitro ADME; details: for Mic. Stab. Mouse / Mic. Stab. Mouse QH: mouse liver microsomes; for Mic. Stab. Rat / Mic. Stab. Rat QH: rat liver microsomes
Experimental: […] Reactions were terminated by addition of acetonitrile and precipitates separated by centrifugation. Compound concentrations in supernatants were measured by HPLC-MS/MS and clearance was calculated from compound half-lives using the well-stirred liver model.

Caco-2 cell monolayer = assay: Bidirectional permeability measurement in Caco-2 cells; assay type: in vitro ADME
Experimental: Bidirectional permeability of test compounds across a Caco-2 cell monolayer was measured as described[43] with a modification of preincubation time[44]: Briefly, Caco-2 cells were seeded onto Transwell inserts (#3379, Corning, Wiesbaden, Germany) at a density of 160000 cells/cm^2 and cultured in DMEM (high glucose) containing 10% fetal bovine serum for 14–21 days. Cells were incubated with culture media containing 1 µM test compound for 24 h. […] Samples were taken at different time points for up to 2 h. Test compound in the samples was quantified with LC-MS/MS. To elucidate the role of drug transporter P-gp in the transcellular transport, permeability measurement was performed in the absence and presence of the selective P-gp inhibitor zosuquidar (5 µM final concentration). Apparent permeability coefficients (Papp,AB, Papp,BA) were calculated as follows:1 Papp,AB=Q_AB/C0×s×t 2 Papp,BA=Q_BA/C0×s×t where Q is the amount of compound recovered in the receiver compartment after the incubation time t, C0 the initial compound concentration given to the donor compartment, and s the surface area of the Transwell inserts. Efflux ratio is calculated as the quotient of Papp,BA (mean of duplicate) to Papp,AB (mean of duplicate). […] In addition, Transepithelial electrical resistance (TEER) values were measured for each plate before the permeability assay. All three parameters (efflux of the reference substrates, Papp values of the low permeable compound, and TEER values) were used to ensure the quality of the assays.

[2] = biological target: VCB: PROTAC: SMARCA2^BD ternary complex (Homo sapiens, UniProt P40337+P51531); assay: SPR ternary complex measurement, VCB immobilised, 10 µM SMARCA2^BD present; assay type: binding; parameters: P51531-2, residues 1373-1493 with additional N-terminal SM residues; His6 (TEV site) (N, cleaved yes); GST (TEV site) (N, cleaved yes); made in house; host or cells: SMARCA2^BD: Escherichia coli BL21(DE3); details: for Kd: SPR; for alpha: cooperativity, SMARCA2, ratio of KD values measured in the same run
Experimental: (§1) SPR data were acquired on Biacore 8K or T200 instruments (Cytiva). Target proteins were immobilised at 25 °C on CM5 chips by amine coupling (EDC/NHS, Cytiva) in HBS-P+ running buffer (pH 7.4), containing 2 mM TCEP. […] The reference surface was subsequently deactivated using 1 M ethanolamine. […] Biotinylated VCB was prepared as previously described[27]: in brief, the complex was mixed 1:1 with EZ-Link NHS–PEG4–biotin (Thermo Scientific) and incubated at room temperature for 1 h. Unreacted NHS-biotin was removed using a PD-10 desalting column (Cytiva) into 20 mM HEPES, pH 7.5, 150 mM sodium chloride and 1 mM DTT. The reference surface was generated by deactivating the EDC/NHS-treated surface with 1 M ethanolamine. All interaction experiments were done at 6 °C in running buffer (20 mM TRIS, pH 8.3, 150 mM potassium chloride, 2 mM magnesium chloride, 2 mM TCEP, 0.005% TWEEN 20, 1% dimethyl sulfoxide). For ternary complex measurements, a sensor chip surface with VCB immobilised was used (preparation as described above). Experiments were run in dual-inject mode with 10 µM SMARCA present during the injection and dissociation phase. Sensorgrams from reference surfaces and blank injections were subtracted from the raw data prior to data analysis using Biacore Insight software. Affinity and binding kinetic parameters were determined by global fitting using the 1:1 interaction model with a term for mass-transport included.

[3] = biological target: VCB: PROTAC: SMARCA4^BD ternary complex (Homo sapiens, UniProt P40337+P51532); assay: SPR ternary complex measurement, VCB immobilised, 10 µM SMARCA4^BD present; assay type: binding; parameters: P51532, residues 1448–1569 with additional N-terminal SM residues; His6 (TEV site) (N, cleaved yes); GST (TEV site) (N, cleaved yes); made in house; host or cells: SMARCA4^BD: Escherichia coli BL21(DE3); details: for Kd: SPR; for alpha: cooperativity, SMARCA4, ratio of KD values measured in the same run
Experimental: as §1

Solubility testing = assay type: physicochemical; details: for solubility at 24 h: buffer, kinetic from dmso stock
Experimental: Dilution into a 1:1 mixture of acetonitrile and water was used as reference. After 24 h, the incubations were filtrated, and the filtrate was analyzed by LC-UV.

[4] = ternary complex with SMARCA2BD, mean ± SD
[5] = ternary complex with SMARCA4BD, mean ± SD
[6] = pH 4.5, aqueous buffer, pH 4.5, read-out: Solubility pH 4.5
[7] = pH 6.8, aqueous buffer, pH 6.8, read-out: Solubility pH 6.8

Sequence of VCB: PROTAC: SMARCA2^BD ternary complex (P40337 54-213): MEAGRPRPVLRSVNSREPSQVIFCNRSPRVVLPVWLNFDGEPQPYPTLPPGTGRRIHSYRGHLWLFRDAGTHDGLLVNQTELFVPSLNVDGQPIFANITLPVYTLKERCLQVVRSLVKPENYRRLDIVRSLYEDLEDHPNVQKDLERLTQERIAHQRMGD
Sequence of VCB: PROTAC: SMARCA2^BD ternary complex (Q15369 17-112 partner limits assumed): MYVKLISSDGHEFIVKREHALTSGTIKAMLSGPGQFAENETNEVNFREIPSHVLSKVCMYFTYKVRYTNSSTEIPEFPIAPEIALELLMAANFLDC
Sequence of VCB: PROTAC: SMARCA2^BD ternary complex (Q15370 1-104 partner limits assumed): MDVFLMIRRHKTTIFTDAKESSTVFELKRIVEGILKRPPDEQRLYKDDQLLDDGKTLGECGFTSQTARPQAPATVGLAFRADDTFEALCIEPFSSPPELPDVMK
Sequence of VCB: PROTAC: SMARCA2^BD ternary complex (P51531 1373-1493 isoform P51531-2): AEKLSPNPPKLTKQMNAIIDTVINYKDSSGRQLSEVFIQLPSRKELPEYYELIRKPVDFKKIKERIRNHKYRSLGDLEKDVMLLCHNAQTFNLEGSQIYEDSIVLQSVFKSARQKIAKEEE
Sequence of VCB: PROTAC: SMARCA4^BD ternary complex (Homo sapiens, UniProt P40337+P51532) (P40337 54-213): as the sequence (P40337 54-213) above
Sequence of VCB: PROTAC: SMARCA4^BD ternary complex (Homo sapiens, UniProt P40337+P51532) (Q15369 17-112 partner limits assumed): as the sequence (Q15369 17-112 partner limits assumed) above
Sequence of VCB: PROTAC: SMARCA4^BD ternary complex (Homo sapiens, UniProt P40337+P51532) (Q15370 1-104 partner limits assumed): as the sequence (Q15370 1-104 partner limits assumed) above
Sequence of VCB: PROTAC: SMARCA4^BD ternary complex (Homo sapiens, UniProt P40337+P51532) (P51532 1448-1569): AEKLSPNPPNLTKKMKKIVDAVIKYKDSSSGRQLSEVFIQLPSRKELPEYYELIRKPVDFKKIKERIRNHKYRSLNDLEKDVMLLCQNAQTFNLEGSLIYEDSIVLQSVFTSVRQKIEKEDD

Compound	cooperativity α (SMARCA4BD) [1]	Mic. Stab. Human (Microsomal stability; human liver microsomes)	Mic. Stab. Human QH (Microsomal stability; human liver microsomes)	Mic. Stab. Mouse (Microsomal stability)	Mic. Stab. Mouse QH (Microsomal stability)	Mic. Stab. Rat (Microsomal stability)	Mic. Stab. Rat QH (Microsomal stability)	Caco-2 Pab (Caco-2 cell monolayer; Caco-2, a to b)	Solubility pH 4.5 (Solubility testing; pH 4.5)	Solubility pH 6.8 (Solubility testing; pH 6.8)	Caco-2 Efflux ratio (Caco-2 cell monolayer; Caco-2)	solubility at 24 h (Solubility testing; [6])	solubility at 24 h (Solubility testing; [7])	further results
Cc1ncsc1-c1ccc(CNC(=O)[C@@H]2C[C@@H](O)CN2C(=O)[C@@H](NC(=O)C2(F)CC2)C(C)(C)C)c(OCCN2CCC(c3ccc4c(c3)n(C3CCCC3)c3nc(=O)c5c(Br)cccc5n43)CC2)c1 [compound 20]	0.4 ± 0.0	89 ± 7 % QH	92.780% and 92.740% and 91.810% and 92.050% and 77.420%	76 ± 2 % QH	73.270% and 75.530% and 75.780% and 78.330%	33 ± 3 % QH	34.870% and 29.970% and 29.780% and 36.100% and < 23.080%	<4.04e-07 cm/s	<1.000 <1.000 <1.000 <1.000 <1.000 ug/mL	<1.000 <1.000 <1.000 <1.000 <1.000 ug/mL				Caco-2 Pab (Caco-2 cell monolayer; Caco-2): <0.4 10-6 cm/s; Kd [2, 4]: 97 ± 10 nM; Kd ([2]; ternary, individual replicates): 89.5 nM and 108 nM and 91.8 nM; alpha [2]: 0.1; Kd [3, 5]: 67 ± 3 nM; Kd ([3]; ternary, individual replicates): 67.7 nM and 69.3 nM and 63.7 nM; alpha [3]: 0.1
O=c1nc2n(C3CCCC3)c3ccccc3n2c2cccc(Br)c12 [compound 1]			87.940% and 88.090%		86.850%		87.000% and 86.360%	3.09e-05 cm/s			0.8	< 1 µg/mL	< 1 µg/mL	
CN1CCN(c2nc(=O)c3c(Br)cccc3o2)CC1 [compound 15]									>83.000 ug/mL	>82.000 ug/mL				
CN1CCN(c2nc(=O)c3c(Cl)cccc3o2)CC1 [compound 13]								9.26e-05 cm/s	>70.000 ug/mL	>71.000 ug/mL	0.606 and 0.6			Caco-2 Pab (Caco-2 cell monolayer; Caco-2): 93 10-6 cm/s
CN1CCC(c2ccc3c(c2)n(C2CCCC2)c2nc(=O)c4c(Br)cccc4n32)CC1 [compound 3]		<24 % QH	<24.400%	43 ± 10 % QH	34.400% and 53.600% and 50.410%	28 ± 1 % QH	< 23.100% and 27.400% and 28.840%	2.83e-05 cm/s	> 100.000 ug/mL	> 110.000 ug/mL and 94.000 ug/mL	0.8	> 110 µg/mL	> 100 µg/mL	
CN1CCN(c2nc(=O)c3c(I)cccc3o2)CC1 [compound 16]									>97.000 ug/mL	>97.000 ug/mL				
Cc1ncsc1-c1ccc([C@H](CC[C@H](C)CCN2CCC(c3ccc4c(c3)n(C3CCCC3)c3nc(=O)c5c(Br)cccc5n43)CC2)NC(=O)[C@@H]2C[C@H](O)CN2C(=O)[C@@H](NC(=O)C2(F)CC2)C(C)(C)C)cc1 [compound 12]	0.9 ± 0.1	<24 % QH	31.400%	<24 % QH	<24.200 NADPH control off limits %	<23 % QH	<23.100%					< 1 µg/mL	< 1 µg/mL	Mic. Stab. Human degradation without NADPH (Microsomal stability; human liver microsomes, without NADPH): 60%
Nc1cccc2c1c(=O)nc1n(C3CCCC3)c3ccccc3n21 [compound 2]			91.040%				88.170%	3.7e-05 cm/s			0.5	< 1 µg/mL	< 1 µg/mL	
Cc1ncsc1-c1ccc(CNC(=O)[C@@H]2C[C@H](O)CN2C(=O)[C@@H](NC(=O)C2(F)CC2)C(C)(C)C)c(OCCN2CCC(c3ccc4c(c3)n(C3CCCC3)c3nc(=O)c5c(Br)cccc5n43)CC2)c1 [compound 19]	0.9 ± 0.1	82 % QH	81.450%	68 % QH	67.500%	28 % QH	27.950%		<1.000 ug/mL	<1.000 ug/mL				
Cc1ncsc1-c1ccc(C(CCC(C)CCN2CCC(c3ccc4c(c3)n(C3CCCC3)c3nc(=O)c5c(Br)cccc5n43)CC2)NC(=O)C2CC(O)CN2C(=O)C(NC(=O)C2(F)CC2)C(C)(C)C)cc1 (stereo not shown) [ACBI2]	3.7 ± 0.8	<24 % QH	<24.400 <24.400 <24.400 <24.400%	<24 % QH	<24.200 <24.200 <24.200 <24.200%	<23 % QH	<23.100 <23.100 <23.100 <23.100%					< 1 µg/mL	< 1 µg/mL	Kd [2, 4]: 44 ± 11 nM; Kd ([2]; ternary, individual replicates): 35.8 nM and 56 nM and 41.1 nM; alpha [2]: 0.8; Kd [3, 5]: 24 ± 4 nM; Kd ([3]; ternary, individual replicates): 21.9 nM and 22.7 nM and 28.4 nM; alpha [3]: 1.4
Cc1ncsc1-c1ccc(CNC(=O)[C@@H]2C[C@@H](O)CN2C(=O)[C@@H](NC(=O)C2(F)CC2)C(C)(C)C)c(OCCOCCOCCOCCN2CCC(c3ccc4c(c3)n(C3CCCC3)c3nc(=O)c5c(Br)cccc5n43)CC2)c1 [compound 22]	9.1 ± 0.7	83 ± 13 % QH	92.060% and 73.150%	58 % QH	57.720%	40 % QH	40.440%	<2.78e-07 cm/s						Caco-2 Pab (Caco-2 cell monolayer; Caco-2): <0.3 10-6 cm/s; Kd [2, 4]: 77 ± 14 nM; Kd ([2]; ternary, individual replicates): 66.2 nM and 92.4 nM and 71.3 nM; alpha [2]: 0.5; Kd [3, 5]: 26 ± 2 nM; Kd ([3]; ternary, individual replicates): 24.6 nM and 23.9 nM and 28 nM; alpha [3]: 1.5
